Measured values as given in publication PMC10241923 (British Journal of Cancer, 2023).

Target: CDK9 (Homo sapiens, UniProt P50750)
Assay: CeTSA isothermal dose-response at […] °C in intact LNCaP cells, immunoblot
Type: cell-based

Sequence of CDK9 (P50750 whole entry): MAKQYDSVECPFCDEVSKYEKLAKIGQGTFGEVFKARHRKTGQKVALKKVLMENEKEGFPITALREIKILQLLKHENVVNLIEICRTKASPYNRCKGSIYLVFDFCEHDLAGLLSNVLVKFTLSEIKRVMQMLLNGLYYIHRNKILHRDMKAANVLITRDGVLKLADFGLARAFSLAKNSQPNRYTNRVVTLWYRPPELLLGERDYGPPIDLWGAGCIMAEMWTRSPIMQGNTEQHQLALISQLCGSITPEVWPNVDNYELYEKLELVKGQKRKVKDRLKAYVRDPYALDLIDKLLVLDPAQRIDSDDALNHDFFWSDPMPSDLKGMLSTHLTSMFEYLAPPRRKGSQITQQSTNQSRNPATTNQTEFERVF

## CC(C)c1cnn2c(NCc3ccccc3)cc(NC[C@H]3CCNC[C@@H]3O)nc12 [CT7001]
  CeTSA isothermal dose-response at 54 °C in intact LNCaP cells, immunoblot: has a degree of engagement also with CDK2 and CDK9 at higher concentrations
